In patent US20250009819A1, “NOVEL PROBIOTICS AND USE THEREOF” (PBLBIOLAB CO., LTD., priority 2021, published 2025):

How the values were obtained:
[1] = Antioxidant activity (DPPH, in vitro); format: biochemical; settings: DPPH 0.2 mM; lactic acid bacteria suspension 1×10^8 CFU/ml; 37° C. 20 min
Outline: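 Lactic acid bacteria suspension (1×10^8 CFU/ml) or vitamin C (1 g/ml) was mixed with 0.2 mM ethanolic DPPH and incubated 20 min at 37° C. After centrifugation, supernatant absorbance at 517 nm gave the antioxidant activity.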

[2] = system: TNF-α; experiment: TNF-α expression in LPS-treated macrophages (ELISA); format: cell-based, C57BL/6 mice; settings: macrophages treated with lactic acid bacteria and LPS for 24 hours
Outline: (§1)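 Peritoneal macrophages were elicited in male C57BL/6 mice (6 weeks) by i.p. 4% thioglycolate and harvested 96 h later. Cells at 0.5×10^6/well were treated with lactic acid bacteria plus LPS for 24 h. Cytokines in the supernatant were quantified by ELISA.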

[3] = system: IL-10; experiment: IL-10 expression in LPS-treated macrophages (ELISA); format: cell-based, C57BL/6 mice; settings: macrophages treated with lactic acid bacteria and LPS for 24 hours
Outline: as §1

[4] = system: Neuropeptide Y (NPY); experiment: Neuropeptide Y (NPY) expression in PC12 phaeochromocytoma cells; format: cell-based; settings: LPS 200 ng/ml; lactic acid bacteria 1×10^4 CFU/ml; 24 hr
Procedure: PC12 cells obtained from the Korean Cell Line Bank were cultured in DMEM medium supplemented with 10% FBS and 1% antibiotics, and dispensed at 1×10^6 cells per well in a 12-well plate. Then, LPS (200 ng/ml) was added to each well along with lactic acid bacteria (1×10^4 CFU/ml) and incubated for 24 hr. The cells and supernatants were collected, sonicated and centrifuged, and the amount of NPY in the supernatant was measured by ELISA kit.

[5] = system: animals with LPS-induced cognitive impairment; experiment: Animals with LPS-induced cognitive impairment: colitis improvement (colon); format: in vivo, C57BL/6 male mice; settings: LPS-treated mice, 1×10^9 CFU/mouse or sulfasalazine 50 mg/kg once a day for 5 days
Procedure: To 100 mg of colon tissue, 200 μl of 10 mM potassium phosphate buffer (pH 7.0) containing 0.5% hexadecyl trimethyl ammonium bromide was added and homogenized. Then, the supernatant was obtained by centrifugation for 10 minutes at 4° C. and 10,000 g. A volume of 50 μl of the supernatant was added to 0.95 mk of reaction solution (containing 1.6 mM tetramethyl benzidine and 0.1 mM H2O2), reacted at 37° C., and absorbance was monitored over time at 650 nm.
Hippocampus, colon, and spleen tissues were homogenized by adding 1 ml of RIPA buffer (Gibco) containing protease inhibitor cocktail and centrifuged at 4° C., 13000 rpm for 15 min to obtain supernatant. Indicators of this supernatant were measured using an ELISA kit (Ebioscience).
C57BL/6 male mice (5 weeks old, 19-21 g) were divided (6 mice in each group) and acclimatized to the laboratory for 1 week. To induce intestinal and brain diseases, mice were intraperitoneally administered Escherichia coli-derived LPS (10 μg/kg) once daily for 5 days. […] Experimental animals in the normal group were orally administered with a physiological saline solution, which was used to suspend lactic acid bacteria. The day following the conclusion of sample administration, the experimental animals were sacrificed, and samples from the brain hippocampus, colon, and spleen were collected. In the Hippocampus, inflammatory indicators, such as IFN-γ, TNF-α, and IL-10, were measured using ELISA. In the colon, intestinal length and inflammatory indicators, such as IFN-γ, TNF-α, and IL-10, were measured. In the spleen, Th1 cells and Treg cells were measured by FACS (Fluorescence-Activated Cell Sorting).

[6] = system: animals with intestinal and brain diseases induced by TNBS; experiment: Animals with intestinal and brain diseases induced by TNBS: improvement effect in colon; format: in vivo, C57BL/6 male mice; settings: TNBS-treated mice, 1×10^9 CFU/mouse or sulfasalazine 50 mg/kg orally once a day for 5 days
Procedure: Then, the supernatant was obtained by centrifugation for 10 minutes at 4° C. and 10,000 g. A volume of 50 μl of the supernatant was added to 0.95 mk of reaction solution (containing 1.6 mM tetramethyl benzidine and 0.1 mM H2O2), reacted at 37° C., and absorbance was monitored over time at 650 nm. […] Indicators of this supernatant were measured using an ELISA kit (Ebioscience). C57BL/6 male mice (5 weeks old, 19-21 g) were divided (6 mice in each group) and acclimatized to the laboratory for 1 week. […] Meanwhile, the normal group was orally administered with 0.1 ml of physiological saline. From the next day, the mice were orally administered once a day for 5 days with lactic acid bacteria as a test sample suspended in physiological saline solution at a concentration of 1×10^9 CFU per mouse (NK210 alone (LR): 1×10^9 CFU/mouse, NK219 alone (BL): 1×10^9 CFU/mouse, NK209 alone (LL): 1×10^9 CFU/mouse, combined (MX, 210+219): NK210, 8×10^8 CFU/mouse and NK219, 2×10^8 CFU/mouse, combined (MX, 209+219) NK209, 8×10^8 CFU/mouse and NK219, 2×10^8 CFU/mouse, LR+BL+LL: NK210, 4×10^8 CFU/mouse, NK219, 2×10^8 CFU/mouse, and NK209, 4×10^8 CFU/mouse, heat treated (H—), respectively: 1×10^9 CFU/mouse). […] The day following the conclusion of sample administration, the experimental animals were sacrificed, and samples from the brain hippocampus, colon, and spleen were collected. In the Hippocampus, inflammatory indicators, such as TNF-α and IL-10, were measured using ELISA. In the colon, intestinal length and inflammatory indicators, such as TNF-α and IL-10, were measured. In the spleen, Th1 cells and Treg cells were measured by FACS (Fluorescence-Activated Cell Sorting).

Row | Substance | Antioxidant activity [1] | Macrophage Inhibition of TNF-α expression [2] | Macrophage Induction of IL-10 expression [3] | PC12 cell Induction of NPY expression [4] | Colon (cm) [5] [cm] | IFN-γ/IL-10 [5] | IL-10 [5] [pg/mg] | Interferon (IFN)-γ [5] [pg/mg] | MPO activity [5] [μUnit/mg] | TNF-α [5] [pg/mg] | TNF-α/IL-10 [5] | Colon IFN-γ [6] [pg/mg] | Colon IL-10 [6] [pg/mg] | Colon MPO [6] [μUnit/mg] | Colon TNF-α [6] [pg/mg] | Colon length (cm) [6] [cm]
1 | Bifidobacterium longum NK219 | +++ (very strongly (+++; >90%)) | +++ (very strongly (+++; >90%)) | +++ (very strongly (+++; >90%)) | ++ (strongly (++; >60-90%)) | 4.8 | 2.35 | 19.56 | 44.72 | 4.30 | 18.59 | 0.96 | 7.79 | 17.20 | 16.24 | 20.57 | 4.82
2 | Lactobacillus rhamnosus NK210 | +++ (very strongly (+++; >90%)) | ++ (strongly (++; >60-90%)) | +++ (very strongly (+++; >90%)) | +++ (very strongly (+++; >90%)) | 5.0 | 2.50 | 21.10 | 44.24 | 4.55 | 20.76 | 0.98 | 8.42 | 15.31 | 18.43 | 23.84 | 4.63
3 | Lactococcus lactis NK209 | + (weakly (+; >20-60%)) | + (weakly (+; >20-60%)) | + (weakly (+; >20-60%)) | + (weakly (+; >20-60%)) |  |  |  |  |  |  |  | 7.89 | 17.10 | 15.65 | 20.12 | 4.89
